The results in this text go back to ChEMBL document CHEMBL1151529, “Conformationally constrained analogues of DAG.7. Interaction of a medium-size -lactone with protein kinase C (PK-C)_” (Bioorg Med Chem Lett, 1994).

The structures appear in SMILES notation.

A short description of experiment [1]: Displacement of [3H]phorbol-12,13-dibutyrate from mouse brain protein kinase C. (In general: Displacement assays read how much labelled ligand stays bound in the presence of the test substance.)
The target in experiment [2] is Protein kinase C alpha type (Rattus norvegicus, UniProt P05696). Put plainly: Displacement of [3H]phorbol-12,13-dibutyrate from rat brain protein kinase C alpha.

On to `CCCCCCCCCCCCCC(=O)O[C@@H]1CCC(=O)O[C@H]1CO`, for which, in experiment [1], the Ki – broadly, the equilibrium dissociation constant of an inhibitor or competing ligand from its target – was 2.8 µM.

Take `CCCCCCCCCCCCCC(=O)O[C@@H]1CC(=O)O[C@H]1CO`: the Ki in experiment [1] is 2.5 µM. In experiment [2], `CCCCCCCCCCCCCC(=O)O[C@@H]1CCCC(=O)O[C@H]1CO` displayed a Ki of 41 µM. Molecule `CCCCCCCCCCCCCC(=O)O[C@H]1CC(=O)O[C@@H]1CO` displayed a Ki in experiment [1] of 5.3 µM.

Turning to `CCCCCCCCCCCCCC(=O)O[C@H]1CCC(=O)O[C@@H]1CO`, the Ki in experiment [1] stood at 30.5 µM.
